Assay results as given in US12263349B2, “Method of treatment of biological surfaces” (Koite Health Oy, priority 2018, dated 2025).
“Also recorded” adds a separate entry of the source.

Tests used:
[1] = system: Streptococcus mutans biofilm; assay: Streptococcus mutans monospecies biofilm model, PDT with indocyanine green, viability by serial dilution CFU; format: cell-based, Streptococcus mutans (ATCC 25175)
Description: In a third series of test, the adaptability of Streptococcus mutans biofilms to multi and single wavelength PDT treatments, respectively, was compared.
Two separate monospecies biofilm model experiments were performed to study the effect of reoccurring photodynamic therapy on biofilm formation. The Streptococcus mutans biofilm experiments were divided in different classes based on biofilm age and the therapy given.
The one-time PDT treatment was performed for 1 day, 2 days and 4 days old biofilms. […] The viability of the bacteria was assessed by serial dilution CFU method which was performed after the last photodynamic therapy treatment.
Streptococcus mutans (ATCC 25175) bacteria was grown over 18 h in growth chamber (36° C., 5% CO2) in BHI-broth (Bio-Rad 3564014). The resulting bacteria suspension was diluted with 0.9% NaCl suspension to optical density of 0.46.
Biofilm was grown on bottom of well plate by adding 100 μl diluted Streptococcus mutans suspension in each well with 100 μl of BHI-broth growth medium. The bacteria plate was incubated in growth chamber (36 Celsius, 5% CO2) and BHI-broth medium changed daily.
Before the light exposure, the growth medium was replaced with indocyanine green suspension which was let to incubate in dark in room temperature for 10 minutes. After the incubation the biofilm was washed twice with 0.9% NaCl solution. The treatment time was calculated from desired light amount and known intensity.
The light exposure was performed by placing the well plate under known LED light source. The given light intensity was analyzed with Thorlabs PM100D and S121C sensor head. Treatment time was changed to result in desired light amount. […]
The first experiment of continuous treatment of Streptococcus biofilm with PDT was completed by using 250 μg/ml ICG with 810 nm light. Different age biofilms of 1 day, 2 days and 4 days were grown, and the treatment was given once to each biofilm to evaluated the effect of single time treatment to differently aged biofilms. […]

[2] = system: Streptococcus mutans; assay: Bacteria plate study: antibacterial effect of 405 nm light compared to PDT; format: cell-based; conditions: FIG. 6
[3] = system: Streptococcus mutans biofilm; assay: Potentiation of chlorhexidine with dual wavelength PDT; format: cell-based; conditions: high and low energy photons with photosensitizer; FIG. 3
From the text: Treatment can be combined with topic use of antibiotics and disinfectants for synergist antipathogen effect. For example, the use phototherapy with chlorhexidine to target biofilms is new to oral disinfection. The results of dual wavelength photodynamic therapy with chlorhexidine against Streptococcus mutans biofilm shown in appendix III are completely new. […] The effectivity is based on photon and anionic photosensitizer ability to penetrate deeper into biofilm and provide efficient bacteria killing inside the biofilm as well as on the surface. The chlorhexidine effect is mostly present only on the surface of the biofilm. High energy photons reduce the biofilm EPS matrix formation that further increases the chlorhexidine effectivity in subsequent treatments. In a second series of tests, potentiation of chlorhexidine with dual wavelength PDT was evaluated.

[4] = system: monospecies biofilm of Streptococcus sobrinus; conditions: biofilm versus planktonic form; cited from earlier work

Molecule | effect of PDT treatment on biofilm (CFU), every day treated ([1]; 250 μg/ml ICG with 810 nm light (single wavelength), 4 days old biofilm treated every day) | effect of PDT treatment on biofilm (CFU), treatment given once ([1]; 250 μg/ml ICG with 810 nm light, single treatment of 1 day, 2 days and 4 days old biofilms) | bacteria killing with double wavelength PDT, every day therapy versus day 4 only ([1]; ICG, 810 nm combined with 405 nm light, 4 days old biofilm) | light dose resulting in complete inhibition of Streptococcus mutans growth [2] [J/cm^2] | antimicrobial effect of chlorhexidine combined with multi wavelength PDT versus reference and one wavelength [3] | times greater concentration needed to kill biofilm than planktonic counterpart [4]
CC1(C)C(/C=C/C=C/C=C/C=C2\N(CCCCS(=O)(=O)O)c3ccc4ccccc4c3C2(C)C)=[N+](CCCCS(=O)(=O)[O-])c2ccc3ccccc3c21 [ICG, Indocyanine green] | poor treatment effect; also recorded: failed to achieve strong bacteria killing | strong effect of PDT treatment | No significant difference of bacteria killing; also recorded: no bacteria biofilm adaptation to the treatment was observed | 4 |  | 
[H]/N=C(\N/C(=N/[H])NCCCCCCNC(=N)NC(=N)Nc1ccc(Cl)cc1)Nc1ccc(Cl)cc1 [chlorhexidine] |  |  |  |  | increased substantially the antibacterial effect; also recorded: much stronger effect | 100
amine fluoride |  |  |  |  |  | 100
